Consider one compound from ChEMBL document CHEMBL5518218, “Discovery of Novel PD-L1 Small-Molecular Inhibitors with Potent In Vivo Anti-tumor Immune Activity” (J Med Chem, 2024).

By Tmax is commonly meant the time at which the peak concentration occurs. As a reminder, the Cmax is the highest concentration seen after dosing.

Data set [1] in a line: Prodrug conversion in C57BL/6 mouse assessed as clearance of (2-(benzo[c][1,2,5]oxadiazol-5-ylmethoxy)-5-chloro-4-((2-fluoro-3'-(3-(4-hydroxypiperidin-1-yl)propoxy)-[1,1'-biphenyl]-3-yl)methoxy)benzyl)-D-serine at 2 mg/kg, iv measured upto 24 hrs by LC-MS/MS analysis. As to conditions: in vivo. Type of data set: ADME, organism-based.
Data set [2] deals with MC-38. The data set can be described thus: Antitumor activity against mouse MC38 cells implanted in po dosed C57BL/6J mouse assessed as reduction in tumor growth. Type of data set: functional, organism-based. As to conditions: dose 5-25 mg/kg.
The nature of data set [3]: Prodrug conversion in Sprague-Dawley rat assessed as Tmax of (2-(benzo[c][1,2,5]oxadiazol-5-ylmethoxy)-5-chloro-4-((2-fluoro-3'-(3-(4-hydroxypiperidin-1-yl)propoxy)-[1,1'-biphenyl]-3-yl)methoxy)benzyl)-D-serine at 45 mg/kg, po measured upto 24 hrs by LC-MS/MS analysis. Type of data set: ADME, organism-based. Particulars: in vivo.
Data set [4] in a line: Prodrug conversion in C57BL/6 mouse assessed as Tmax of (2-(benzo[c][1,2,5]oxadiazol-5-ylmethoxy)-5-chloro-4-((2-fluoro-3'-(3-(4-hydroxypiperidin-1-yl)propoxy)-[1,1'-biphenyl]-3-yl)methoxy)benzyl)-D-serine at 10 mg/kg, po measured upto 24 hrs by LC-MS/MS analysis. It counts as ADME, organism-based. As to conditions: in vivo.
Data set [5] has as its system CT26. The data set can be described thus: Antitumor activity against mouse CT26 cells implanted in BALB/c mouse assessed as tumor growth inhibition at 10 mg/kg, ip measured at 8 to 14 days. It counts as functional. As to conditions: time 8-14 day, read-out: TGI.
The subject of data set [6] is CT26. The data set can be described thus: Antitumor activity against mouse CT26 cells implanted in BALB/c mouse assessed as increase in percentage of CD8+ cells at 25 mg/kg, ip measured for 20 days. Type of data set: functional. Particulars: time 20 day.
The nature of data set [7]: Prodrug conversion in C57BL/6 mouse assessed as AUC (0 to t) of (2-(benzo[c][1,2,5]oxadiazol-5-ylmethoxy)-5-chloro-4-((2-fluoro-3'-(3-(4-hydroxypiperidin-1-yl)propoxy)-[1,1'-biphenyl]-3-yl)methoxy)benzyl)-D-serine at 10 mg/kg, po measured upto 24 hrs by LC-MS/MS analysis. Type of data set: ADME, organism-based. Particulars: in vivo.
Data set [8] concerns MC-38. The data set can be described thus: Antitumor activity against mouse MC38 cells implanted in C57BL/6J mouse assessed as tumor growth inhibition at 5 mg/kg, po measured for 20 days. Type of data set: functional. Particulars: MC-38, 480 h, time 20 day, read-out: TGI.
A short description of data set [9]: Prodrug conversion in Sprague-Dawley rat assessed as half life of (2-(benzo[c][1,2,5]oxadiazol-5-ylmethoxy)-5-chloro-4-((2-fluoro-3'-(3-(4-hydroxypiperidin-1-yl)propoxy)-[1,1'-biphenyl]-3-yl)methoxy)benzyl)-D-serine at 45 mg/kg measured upto 24 hrs by LC-MS/MS analysis. It counts as ADME, organism-based. As to conditions: in vivo, po.
Data set [10] in a line: Prodrug conversion in C57BL/6 mouse assessed as Cmax of (2-(benzo[c][1,2,5]oxadiazol-5-ylmethoxy)-5-chloro-4-((2-fluoro-3'-(3-(4-hydroxypiperidin-1-yl)propoxy)-[1,1'-biphenyl]-3-yl)methoxy)benzyl)-D-serine at 10 mg/kg, po measured upto 24 hrs by LC-MS/MS analysis. Type of data set: ADME, organism-based. Particulars: in vivo.

With `CCOC(=O)[C@@H](CO)NCc1cc(Cl)c(OCc2cccc(-c3cccc(OCCCN4CCC(O)CC4)c3)c2F)cc1OCc1ccc2nonc2c1.Cl.Cl`, the CL in data set [1] worked out at 61.845 mL/min/kg. The values for the Activity entry in the data set with MC-38 [2] and with CT26 [6] were “Dose-Dependent Effect” and 7.2%, respectively. Moreover, the values for the Tmax in data set [3] and in data set [4] were 4 h and 0.7 h, respectively. Moreover, in the data set on CT26 [5], the inhibition in vivo at 10 mg/kg was 21.9%. Besides, in data set [7], the AUCt is 315.6 ng·h/mL. Further, the inhibition in vivo at 5 mg/kg in the data set on MC-38 [8] is 49.2%. In data set [9], the t1/2 was found to be 4.3 h. For the same compound, the Cmax in data set [10] amounted to 255.7 ng/mL.
